SMILES strings stand for the structures.

This assay addresses T1, EmbR protein (Mycobacterium tuberculosis, UniProt P9WGJ9).
T1 sequence (P9WGJ9 1-388): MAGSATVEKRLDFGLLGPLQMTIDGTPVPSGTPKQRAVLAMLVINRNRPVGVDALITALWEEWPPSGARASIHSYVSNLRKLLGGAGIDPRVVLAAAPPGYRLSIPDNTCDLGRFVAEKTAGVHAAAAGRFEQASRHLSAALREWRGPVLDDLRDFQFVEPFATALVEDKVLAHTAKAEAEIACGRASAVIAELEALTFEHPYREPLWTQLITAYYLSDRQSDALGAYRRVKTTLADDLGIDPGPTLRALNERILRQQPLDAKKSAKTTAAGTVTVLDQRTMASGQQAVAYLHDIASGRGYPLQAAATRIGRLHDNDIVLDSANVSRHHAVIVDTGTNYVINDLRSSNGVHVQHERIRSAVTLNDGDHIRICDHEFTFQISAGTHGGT
In kind it is binding. To be noted: BLI, clinical TB drugs tested as controls under the same conditions.
As to `CC[C@@H](CO)NCCN[C@@H](CC)CO` [EMB, Ethambutol], the “binding to EmbR” value was “no significant binding”.

Consider `NNC(=O)c1ccncc1` [INH, isoniazid], for which the “binding to EmbR” value is recorded as “no significant binding”.

`CO[C@H]1/C=C/O[C@@]2(C)Oc3c(C)c(O)c4c(O)c(c(/C=N/N5CCN(C)CC5)c(O)c4c3C2=O)NC(=O)/C(C)=C\C=C\[C@H](C)[C@H](O)[C@@H](C)[C@@H](O)[C@@H](C)[C@H](OC(C)=O)[C@@H]1C` [RIF, rifampicin]: the “binding to EmbR” value was “no significant binding”.

These data come from publication PMC8636726 (Synthetic and Systems Biotechnology, 2021).
